Measurements published in PubChem BioAssay (NCI).
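48-hour exposure; five concentrations; linearly interpolated endpoints. Definition used: TGI = concentration required for complete inhibition of growth.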

Legend:
Assay in all cases: NCI-60 cell line screen, 48 h
[1] = system: ACHN renal
[2] = system: SNB-19 CNS
[3] = system: U251 CNS
[4] = system: HOP-92 NSCLC
[5] = system: T-47D breast
[6] = system: COLO 205 colon
[7] = system: HL-60(TB) leukemia
[8] = system: CAKI-1 renal
[9] = system: HT29 colon
[10] = system: EKVX NSCLC
[11] = system: RXF 393 renal
[12] = system: CCRF-CEM leukemia
[13] = system: K-562 leukemia
[14] = system: MALME-3M melanoma
[15] = system: SK-MEL-28 melanoma
[16] = system: SR leukemia
[17] = system: LOX IMVI melanoma
[18] = system: UACC-257 melanoma
[19] = system: SF-539 CNS

Compound	TGI [1] [µM]	TGI [2] [µM]	TGI [3] [µM]	TGI [4] [µM]	TGI [5] [µM]	TGI [6] [µM]	TGI [7] [µM]	TGI [8] [µM]	TGI [9] [µM]	TGI [10] [µM]	TGI [11] [µM]	TGI [12] [µM]	TGI [13] [µM]	TGI [14] [µM]	TGI [15] [µM]	TGI [16] [µM]	TGI [17] [µM]	TGI [18] [µM]	TGI [19] [µM]
CN(C)C(c1ccccc1)C1COC2Cc3ccccc3C1O2 (stereo unspecified)	> 100	> 100	> 100	> 100	> 100	> 100	> 100	> 100	> 100	> 100	> 100	> 100	> 100	> 100	> 100	> 100	> 100	> 100	> 100
COc1ccc(Cc2nnc(Nc3ccc(Br)cc3)[nH]c2=O)cc1OC	> 100	> 100	> 100	> 100	> 100	> 100	> 100	> 100	> 100	> 100	> 100	> 100	> 100	> 100	> 100	> 94.3	> 100	> 100	> 100
CC1(C)Cc2nc3c(cc2C(=O)C1C=N/C(C#N)=C(\N)C#N)C(=O)C(C=N/C(C#N)=C(\N)C#N)C(C)(C)C3 (stereo unspecified)	5.87	21.5	3.14	3.33	4.3	7.04	10.1	3.54	10.9	6.01	3.04	> 100	> 100	2.84	4.58	> 100	5.7	6.73	2.41
CC(=O)Nc1c(C)cc2c(nc3n2CCC3OC(C)=O)c1[N+](=O)[O-] (stereo unspecified)	> 100	> 100	> 100	> 100	> 100	> 100	> 100	> 100	> 100	> 100	> 100	> 100	> 100	> 100	> 100	> 100	> 100	> 100	> 100
C/C=C(\C)C(O)C(C)C(O)C/C=C(C)/C=C(\C)C/C(C)=C/C/C=C(\C)C(O)C(C)c1ccc(CCC)c(=O)o1 (stereo unspecified)	53.2	42.3	24.1	44	65.4	16.8	> 100	31.8	3.32	> 100	77.3	> 100	> 100	27.1	32.3	> 100	28.3	15.2	28.2
CC(C)=CCC/C(C)=C/CC/C(C)=C/CC/C(C)=C/CC/C(C)=C/CC/C(C)=C/CC/C(C)=C/CC/C(C)=C/CC/C(C)=C/CO	> 100	> 100	> 100	> 100	> 100	> 100	> 100	> 100	> 100	> 100	> 100	> 100	> 100	> 100	> 100	> 100	> 100	> 100	> 100
COc1cc(-c2cc(=O)c3c(O)c(CC=C(C)C)c(O)cc3o2)ccc1O	> 50	> 50	> 50	> 50	40.8	> 50	> 50	28	> 50	32.5	> 50	> 50	> 50	> 50	26.7	41.9	> 50	> 50	47.6
COc1ccccc1C1ON=C(c2ccc([N+](=O)[O-])cc2)N1C12CC3CC(CC(C3)C1)C2 (stereo unspecified)	> 100	> 100	> 100	> 100	> 100	> 100	42.5	> 100	> 100	> 100	60.4	> 100	> 100	> 100	> 100	> 100	> 100	> 100	> 100
CC(=O)OCC1OC(Nn2c(=O)[nH]c3ccccc3c2=O)C(OC(C)=O)C(OC(C)=O)C1OC(C)=O (stereo unspecified)	> 100	> 100	> 100	> 100	> 100	> 100	> 100	> 100	> 100	> 100	> 100	> 100	> 100	> 100	> 100	> 100	> 100	> 100	> 100
CCC(=O)Nc1ccc(NC(C#N)c2cccc(Oc3ccccc3)c2)cc1 (stereo unspecified)	> 100	> 100		> 100	> 100	> 100	46.8	> 100	> 100	> 100	> 100	> 100	> 100	94.2	> 100	55	47		74.2
CCOC(=O)C1c2[nH]c3ccccc3c2CCN1C(=O)c1ccc(OC)o1 (stereo unspecified)	> 10	> 10	> 10	> 10	> 10	> 10	> 10	> 10	> 10	> 10	> 10	> 10	> 10	2.78	> 10	> 10	> 10	> 10	> 10
CC[C@@]1(C)CCC2c3ccc(O)cc3CC[C@H]2C1C (stereo partly specified)	32.7	32.1	30.9	19.5	39.3	35.1	29	35.7	34.1	34	26	33.4	23.3	30.5	32	31.6	31.9	29.3	35.4
Cc1ccc(O)c(C2=CC(c3cccc(Cl)c3)SC(N)=N2)c1 (stereo unspecified)	54.4	37.7	34.4	42.9	99.2	39.8	61.6	> 100	46.3	61.8	63.6	83.1	55.5	62.5		46.5	34.7	46.8	53.1
O=C(c1ccccc1)c1ccc2[nH]c(-c3c(Cl)c(Cl)c(Cl)c(Cl)c3C(=O)N/N=C/c3cccc(Oc4ccccc4)c3)nc2c1	> 100	> 100	> 100	> 100	> 100	> 100	> 100	> 100	> 100	> 100	> 100	> 100	> 100	> 100	> 100	> 100	> 100	> 100	> 100
COC(=O)C1(C#N)C(C)(C)N=C(c2ccccc2)C12CCCCC2 (stereo unspecified)		> 100	> 100	> 100	> 100	> 100	> 100	> 100	> 100	> 100	> 100	> 100	> 100	> 100	> 100	> 100	> 100	> 100	> 100
CCOC(=O)C1(C(=O)OCC)OC(C)=NC1(C(=O)OC)C(=O)OC	> 100	> 100	> 100	> 26.4	> 100	> 100	> 100	> 100	> 100	> 100	> 100	> 100	> 100	> 100	> 100	> 100	> 100	> 100	> 100
COc1cc(NCCC2CCCCN2)c2ncccc2c1 (stereo unspecified)	> 100	> 100	> 100	> 100	4.83	28.6	19.1	> 100	> 100	> 100	77	> 66.3	> 66.3	> 57.6	> 59.8	> 81.3	> 100	41.1	> 100
COC(=O)c1cc(C(=CCC[C@H]2CC[C@@]3(C)C(CCC4C3CC[C@@]3(C)C4CC[C@@H]3C(C)CCCC(C)C)C2)c2cc(Cl)c(O)c(C(=O)OC)c2)cc(Cl)c1O (stereo partly specified)	> 10	> 10	> 10	> 10	> 10	> 10	> 10	> 10	> 10	> 10	> 10	> 10	> 10	> 10	> 10	> 10	> 10	> 10	> 10
CC(C)=CC(Cc1ccccc1)S(=O)(=O)c1nc2ccccc2s1 (stereo unspecified)	42.9	32	29.4	41.7	> 67.2	34.9	9.62	22.1	41.7	41.7	41.9	7.49	33.4	32.1	32.3	5.24	11.9	54.2	30.8
NC(Cc1ccc(N(CCCl)CCCl)cc1)C(=O)NC(CCC(=O)O)C(=O)O (stereo unspecified)	> 100	> 100	> 100	> 100	> 100	> 100	> 100	> 100	> 100	> 100	> 100	> 100	> 100	> 100	> 100	> 100	> 100	> 100	> 100
